The assay relates to AR42J tumor. The assay can be described thus: Combination efficacy study with 5-fluorouracil. It counts as in vivo, mice. The following applies: 5-fluorouracil alone, 15mg/kg once per week for nine weeks; post cell injection.

These results are taken from PMC6497546 (Molecular cancer therapeutics, 2019).

With `O=c1[nH]cc(F)c(=O)[nH]1` [5-fluorouracil], the median survival was 2.4 weeks.
